Common to all, as to assay type: cell-based
Assay [1] relates to HCV 1a RLuc cells (dicistronic genotype 1a H77 replicon, RLuc reporter). Put plainly: microbe, parasite or virus in culture. The following applies: Hepatitis C virus, read-out: 1a. In short, it runs like this:
(§1)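 Replicon cells stably carrying the listed RLuc-encoding dicistronic replicons were seeded and treated with DMSO serial dilutions of compound (10 mM stocks) diluted into culture medium. After 72 h, cells were lysed and Renilla luciferase activity measured. EC50 was derived by non-linear regression.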

Assay [2] relates to HCV 1b RLuc cells (dicistronic genotype 1b Con1 replicon, RLuc reporter). Description: microbe, parasite or virus in culture. The note with it: Hepatitis C virus, read-out: 1b (nM). The method, boiled down: as §1
Assay [3] deals with HCV 2a JFH-1 Rluc cells (dicistronic genotype 2a JFH-1 replicon, RLuc reporter). Description: microbe, parasite or virus in culture. The following applies: Hepatitis C virus, read-out: 2a JFH. In short, it runs like this:
as §1

Assay [4] deals with HCV 2b Rluc cells (NS5A chimeric genotype 2a JFH-1 replicon with genotype 2b MD2b-1 NS5A gene, M31 present). Description: microbe, parasite or virus in culture. The note with it: Hepatitis C virus, read-out: 2b. In short, it runs like this: as §1
Assay [5] deals with HCV 3a RLuc cells (NS5A chimeric genotype 1b Con1 replicon with consensus genotype 3a NS5A gene). Put plainly: microbe, parasite or virus in culture. The following applies: Hepatitis C virus. The method, boiled down: as §1
In assay [6] the test system is HCV 4a Rluc cells (NS5A chimeric genotype 1b Con1 replicon with genotype 4a NS5A gene). Put plainly: microbe, parasite or virus in culture. The following applies: Hepatitis C virus, read-out: 4a. In short, it runs like this:
as §1

In assay [7] the test system is HCV 2a Rluc cells (NS5A chimeric genotype 2a JFH-1 replicon with genotype 2a J6 strain NS5A gene, M31 present). Description: HCV replicon reporter assay, genotype 2a J6 (M31 present). The note with it: Hepatitis C virus, read-out: 2a J6. In short, it runs like this:
as §1
For orientation: In antiviral work, replicon cells carry a viral genome segment that copies itself.

Setting [8] is: read-out: 3a, genotype 3a replicon.
[9] abbreviates: genotype 2a JFH-1 RLuc replicon.
The mark [10] stands for this setting: read-out: 3a, genotype 3a NS5A chimeric replicon.

Where two headings read alike, the source gives them in different places. Some results are limits rather than exact numbers.

As for `COC[C@H]1C[C@@H](c2ncc(-c3ccc(-c4ccc5c(ccc6nc([C@@H]7CCCN7C(=O)[C@@H](NC(=O)OC)C(C)C)[nH]c65)c4)cc3)[nH]2)N(C(=O)[C@H](NC(=O)C2CC2)c2ccccc2)C1` [Example 456], the EC50 in assay [1] (genotype 1a replicon) is 1 to 999 pM; in assay [2] it was 0.04 nM; in assay [3] (genotype 2a JFH-1 replicon) it was 1 to 999 pM; in assay [4], 1 to 999 pM; in assay [5] (setting [8]), 1 to 990 pM; in assay [6], 1 to 990 pM. The EC50 in assay [7] lay in the range of 1 to 999 pM.

`CC#Cc1cc(-c2cnc([C@@H]3CCCN3C(=O)[C@H](NC(=O)OC)c3ccccc3)[nH]2)ccc1-c1ccc2c(ccc3nc([C@@H]4CCCN4C(=O)[C@@H](NC(=O)OC)C(C)C)[nH]c32)c1` [Example 374]: the EC50 is 1 to 999 pM in assay [1] (genotype 1a replicon); 0.019 nM in assay [2]; 1 to 999 pM in assay [3] (genotype 2a JFH-1 replicon); 1000 to 44000 pM in assay [4]; 1 to 990 pM in assay [5] (setting [8]); 1 to 990 pM in assay [6]. For the same compound, the EC50 in assay [7] was 1 to 999 pM.

Regarding `COC(=O)N[C@H](C(=O)N1CCC[C@H]1c1nc(Cl)c(-c2ccc(-c3ccc(-c4[nH]c([C@@H]5CCCN5C(=O)[C@@H](NC(=O)OC)C(C)C)nc4Cl)cc3)cc2)[nH]1)C(C)C` [Example 352], the EC50 in assay [1] (genotype 1a replicon) was 1 to 999 pM; in assay [2], 0.011 nM; in assay [3] (genotype 2a JFH-1 replicon), 1 to 999 pM; in assay [4] it was 1000 to 44000 pM; in assay [5] (setting [8]), 1 to 990 pM; in assay [6], 1 to 990 pM. In addition, the EC50 in assay [7] lay in the range of 1000 to 44000 pM.

As for `COC(=O)N[C@H](C(=O)N1C[C@@H](OC)C[C@H]1c1ncc(-c2ccc(-c3ccc4cc(-c5cnc([C@@H]6CCCN6C(=O)[C@H](NC(=O)OC)c6ccccc6)[nH]5)ccc4c3)cc2)[nH]1)C(C)C` [Example 123], the EC50 in assay [1] (genotype 1a H77 replicon, RLuc reporter) was 1 to 999 pM; in assay [2], 0.014 nM; in assay [3] (genotype 2a JFH-1 replicon, RLuc reporter) it was 1 to 999 pM; in assay [4], more than 44000 pM; in assay [5] (read-out: 3a, genotype 3a NS5A chimeric 1b Con1 replicon) it was 1 to 990 pM; in assay [6], 1 to 990 pM. Also, in assay [7], the EC50 is more than 44000 pM.

For `COC[C@H]1C[C@@H](c2nc3ccc4cc5c(cc4c3[nH]2)OCc2cc(-c3cnc([C@@H]4CCCN4C(=O)[C@H](NC(=O)C4CC4)c4ccccc4)[nH]3)ccc2-5)N(C(=O)[C@@H](NC(=O)OC)C(C)C)C1` [Example 510], the EC50 in assay [1] (genotype 1a H77 RLuc replicon) is 1 to 999 pM; in assay [2] it was 0.05 nM; in assay [3] (setting [9]) it was 1 to 999 pM; in assay [4] it was 1 to 999 pM; in assay [5] (setting [10]), 1 to 990 pM; in assay [6] it was 1 to 990 pM. Also, the EC50 in assay [7] fell in the range of 1 to 999 pM.

Consider `COC(=O)N[C@H](C(=O)N1CCC[C@H]1c1nc2ccc3cc(-c4ccc5c(ccc6nc([C@@H]7C[C@H](C#N)CN7C(=O)[C@@H](NC(=O)OC)C(C)C)[nH]c65)c4)ccc3c2[nH]1)C(C)C` [Example 416], for which the EC50 is 1 to 999 pM in assay [1] (genotype 1a replicon); 0.043 nM in assay [2]; 1 to 999 pM in assay [3] (genotype 2a JFH-1 replicon); 1000 to 44000 pM in assay [4]; 1 to 990 pM in assay [5] (setting [8]); 1 to 990 pM in assay [6]. Besides, the EC50 in assay [7] lay within 1 to 999 pM.

Consider `COC[C@H]1C[C@@H](c2nc3ccc4cc(-c5ccc(-c6cnc([C@@H]7CCCN7C(=O)[C@H](NC(=O)CN(C)C)c7ccccc7)[nH]6)cc5)ccc4c3[nH]2)N(C(=O)[C@@H](NC(=O)OC)C(C)C)C1` [Example 476], for which the EC50 in assay [1] (genotype 1a replicon) was 1 to 999 pM; in assay [2] it was 0.099 nM; in assay [3] (genotype 2a JFH-1 replicon) it was 1 to 999 pM; in assay [4], 1 to 999 pM; in assay [5] (setting [8]) it was 1 to 990 pM; in assay [6], 1 to 990 pM. Moreover, in assay [7], the EC50 is 1 to 999 pM.

As to `COC(=O)N[C@H](C(=O)N1CCC[C@H]1c1ncc(-c2ccc3c(c2)COc2c-3ccc3cc(-c4cnc([C@@H]5CCCN5C(=O)[C@H](NC(=O)OC)c5ccccc5)[nH]4)ccc23)[nH]1)C(C)C` [Example 2], the EC50 in assay [1] (72 h, Table 1, genotype 1a H77 replicon, 72 hours) is 1 to 999 pM; in assay [2] (72 h), 0.005 nM; in assay [3] (72 h, Table 1, genotype 2a JFH-1 replicon, 72 hours), 1 to 999 pM; in assay [4] it was more than 44000 pM; in assay [5] (read-out: 3a, Table 1, genotype 3a NS5A chimeric replicon), 1 to 990 pM; in assay [6], 1 to 990 pM. In assay [7], the EC50 is more than 44000 pM.

`CC[C@H](C)[C@H](NC(=O)OC)C(=O)N1CCC[C@H]1c1nc2ccc3cc(-c4ccc5c(ccc6nc([C@@H]7C[C@H](COC)CN7C(=O)[C@H](NC(=O)OC)c7ccccc7)[nH]c65)c4)ccc3c2[nH]1` [Example 509]: the EC50 in assay [1] (genotype 1a H77 RLuc replicon) is 1 to 999 pM; in assay [2] it was 0.028 nM; in assay [3] (setting [9]) it was 1 to 999 pM; in assay [4], 1 to 999 pM; in assay [5] (setting [10]), 1 to 990 pM; in assay [6], 1 to 990 pM. For the same compound, the EC50 in assay [7] was in the range of 1 to 999 pM.

For `COC(=O)N[C@H](C(=O)N1CCC[C@H]1c1nc2ccc3cc(-c4ccc5cc(-c6[nH]c([C@@H]7CCCN7C(=O)[C@H](NC(=O)OC)c7ccccc7)nc6Cl)ccc5c4)ccc3c2[nH]1)C(C)C` [Example 385], the EC50 in assay [1] (genotype 1a replicon) is 1 to 999 pM; in assay [2], 0.007 nM; in assay [3] (genotype 2a JFH-1 replicon), 1 to 999 pM; in assay [4], 1000 to 44000 pM; in assay [5] (setting [8]) it was 1 to 990 pM; in assay [6] it was 1 to 990 pM. In addition, the EC50 in assay [7] lay in the range of 1000 to 44000 pM.

Turning to `COC(=O)N[C@H](C(=O)N1CCC[C@H]1c1ncc(-c2ccc3c(c2)COc2cc4c(cc2-3)CCc2nc([C@@H]3CCCN3C(=O)[C@H](NC(=O)C3CC3)c3ccccc3)[nH]c2-4)[nH]1)C(C)C` [Example 503], the EC50 was 1 to 999 pM in assay [1] (genotype 1a H77 RLuc replicon); 0.041 nM in assay [2]; 1 to 999 pM in assay [3] (setting [9]); 1 to 999 pM in assay [4]; 1 to 990 pM in assay [5] (setting [10]); 1 to 990 pM in assay [6]. Besides, the EC50 in assay [7] was 1 to 999 pM.

Turning to `CCC(=O)N[C@@H](C(=O)N1CCC[C@H]1c1ncc(-c2cc3c4c(c2)OCc2cc(-c5cnc([C@@H]6CCCN6C(=O)[C@H](NC(=O)CC)c6ccccc6)[nH]5)cc(c2-4)OC3)[nH]1)c1ccccc1` [Example 450], the EC50 in assay [1] (genotype 1a replicon) is 1 to 999 pM; in assay [2], 0.427 nM; in assay [3] (genotype 2a JFH-1 replicon) it was 1 to 999 pM; in assay [4] it was 1 to 999 pM; in assay [5] (setting [8]), 1 to 990 pM; in assay [6], 1 to 990 pM. For the same compound, the EC50 in assay [7] lay within 1 to 999 pM.

For the compound `COCCOC(=O)N[C@@H](C(=O)N1CCC[C@H]1c1ncc(-c2cc3c4c(c2)OCc2cc(-c5cnc([C@@H]6CCCN6C(=O)[C@H](NC(=O)OCCOC)c6ccccc6)[nH]5)cc(c2-4)OC3)[nH]1)c1ccccc1` [Example 448], the EC50 is 1 to 999 pM in assay [1] (genotype 1a replicon); 0.459 nM in assay [2]; 1 to 999 pM in assay [3] (genotype 2a JFH-1 replicon); 1 to 999 pM in assay [4]; 1 to 990 pM in assay [5] (setting [8]); 1 to 990 pM in assay [6]. The EC50 in assay [7] lay in the range of 1000 to 44000 pM.

In the case of `COC(=O)N[C@H](C(=O)N1CCC[C@H]1c1nc2ccc3cc(-c4ccc5c(ccc6nc([C@@H]7C[C@@H]8CCC[C@@H]8N7C(=O)[C@@H](NC(=O)OC)C(C)C)[nH]c65)c4)ccc3c2[nH]1)C(C)C` [Example 428], the EC50 in assay [1] (genotype 1a replicon) was 1 to 999 pM; in assay [2] it was 0.011 nM; in assay [3] (genotype 2a JFH-1 replicon) it was 1 to 999 pM; in assay [4], 1000 to 44000 pM; in assay [5] (setting [8]) it was 1 to 990 pM; in assay [6], 1 to 990 pM. Moreover, in assay [7], the EC50 fell in the range of 1 to 999 pM.

With `COC(=O)N[C@H](C(=O)N1[C@@H]2CC[C@@H](C2)[C@H]1c1ncc(-c2ccc(-c3ccc4c(ccc5nc([C@@H]6C[C@H]7C[C@H]7N6C(=O)[C@H](NC(=O)OC)c6ccccc6)[nH]c54)c3)cc2)[nH]1)C(C)C` [Example 379], the EC50 in assay [1] (genotype 1a replicon) was 1 to 999 pM; in assay [2], 0.009 nM; in assay [3] (genotype 2a JFH-1 replicon) it was 1 to 999 pM; in assay [4], more than 44000 pM; in assay [5] (setting [8]) it was 1 to 990 pM; in assay [6] it was 1 to 990 pM. Besides, the EC50 in assay [7] was 1 to 999 pM.

Turning to `CC(C)[C@H](NC(=O)OC(C)(C)C)C(=O)N[C@@H](C(=O)N1CCC[C@H]1c1ncc(-c2cc3c4c(c2)OCc2cc(-c5cnc([C@@H]6CCCN6C(=O)[C@H](NC(=O)[C@@H](NC(=O)OC(C)(C)C)C(C)C)c6ccccc6)[nH]5)cc(c2-4)OC3)[nH]1)c1ccccc1` [Example 485], the EC50 in assay [1] (genotype 1a replicon) was 1000 to 44000 pM; in assay [2], 0.17 nM; in assay [3] (genotype 2a JFH-1 replicon) it was 1 to 999 pM; in assay [4], more than 44000 pM; in assay [5] (setting [8]), 1 to 990 pM; in assay [6], 1 to 990 pM. In addition, the EC50 in assay [7] is more than 44000 pM.

Values taken from patent publication US10344019B2 (priority 2010, dated 2019).
